Converted amounts (≈) assume the structure as drawn.
What was measured:
Format in all cases: functional
[1] = tested on: Mycobacterium tuberculosis; assay: AntiMycobacterium tuberculosis activity Non-Replicating form: Average MIC90 (uM)
[2] = tested on: Mycobacterium tuberculosis; assay: AntiMycobacterium tuberculosis activity 1-week GAST/Fe MIC (uM); conditions: 168 h
[3] = tested on: Mycobacterium tuberculosis; assay: AntiMycobacterium tuberculosis activity 2-week GAST/Fe MIC (uM); conditions: 336 h
[4] = tested on: Mycobacterium tuberculosis; assay: AntiMycobacterium tuberculosis activity 1-week 7H9/ADC/Tw MIC (uM); conditions: 168 h
[5] = tested on: Mycobacterium tuberculosis; assay: AntiMycobacterium tuberculosis activity 2-week 7H9/ADC/Tw MIC (uM); conditions: 336 h
[6] = tested on: Mycobacterium tuberculosis; assay: AntiMycobacterium tuberculosis activity 2-week Alamar Blue 7H9/ADC/Tw MIC (uM); conditions: 336 h
[7] = tested on: Mycobacterium tuberculosis; assay: AntiMycobacterium tuberculosis activity 1-week 7H9/glucose/BSA/Tx MIC (uM); conditions: 168 h
[8] = tested on: Mycobacterium tuberculosis; assay: AntiMycobacterium tuberculosis activity 2-week 7H9/glucose/BSA/Tx MIC (uM); conditions: 336 h
[9] = tested on: Mycobacterium tuberculosis; assay: AntiMycobacterium tuberculosis activity 1-week 7H9/DPPC/cholesterol/BSA/Tx MIC (uM); conditions: 168 h
[10] = tested on: Mycobacterium tuberculosis; assay: AntiMycobacterium tuberculosis activity 2-week 7H9/DPPC/cholesterol/BSA/Tx MIC (uM); conditions: 336 h
[11] = tested on: Mycobacterium tuberculosis; assay: AntiMycobacterium tuberculosis activity 1-week 7H9/cholesterol/BSA/Tx MIC (uM); conditions: 168 h
[12] = tested on: Mycobacterium tuberculosis; assay: AntiMycobacterium tuberculosis activity 2-week Alamar Blue 7H9/cholesterol/BSA/Tx MIC (uM); conditions: 336 h
[13] = tested on: Mycobacterium tuberculosis; assay: (§1) AntiMycobacterium tuberculosis activity day 10 in 7H9/2.5mM butyrate/pH6/0.1mM nitrite MIC90 (uM); conditions: 240 h
[14] = tested on: Mycobacterium tuberculosis; assay: AntiMycobacterium tuberculosis activity day 21 in 7H9/2.5mM butyrate/pH6/0.1mM nitrite MIC90 (uM); conditions: 504 h
[15] = tested on: Mycobacterium tuberculosis; assay: as §1; conditions: 240 h; remark: listed apart in the source
[16] = tested on: Mycobacterium tuberculosis; assay: AntiMycobacterium tuberculosis activity day 21 MIC99 in 7H9/2.5mM butyrate/pH6/0.1mM nitrite MIC99 (uM); conditions: 504 h
[17] = tested on: Mycobacterium tuberculosis; assay: AntiMycobacterium tuberculosis activity Replicating form: Average MIC90 (uM)
HepG2 = assay: HepG2 CC50 (uM) Cytotoxicity; conditions: Homo sapiens

Compound	MIC90 [1] [µM]	MIC [2] [µM]	MIC [3] [µM]	MIC [4] [µM]	MIC [5] [µM]	MIC [6] [µM]	MIC [7] [µM]	MIC [8] [µM]	MIC [9] [µM]	MIC [10] [µM]	MIC [11] [µM]	MIC [12] [µM]	MIC90 [13] [µM]	MIC90 [14] [µM]	MIC90 [15] [µM]	MIC [16] [µM]	MIC90 [17] [µM]	CC50 (HepG2) [µM]
O=C(NCc1ccco1)N1CCN(Cc2ccc(Cl)s2)CC1	90.2 (≈ 30.6 µg/mL)	0.6 (≈ 0.204 µg/mL)	1.2 (≈ 0.408 µg/mL)	> 50	> 50	12.5 (≈ 4.25 µg/mL)	> 50	> 50	37 (≈ 12.6 µg/mL)	50 (≈ 17 µg/mL)	37 (≈ 12.6 µg/mL)	12.5 (≈ 4.25 µg/mL)	50 (≈ 17 µg/mL)	> 50	> 50	> 50	> 100	> 100
CC(=O)NCC1CN(c2ccc(-c3ccc(CO)cc3)c(F)c2)C(=O)O1 (configuration not stated)	0.32 (≈ 0.115 µg/mL)	0.1 (≈ 0.0358 µg/mL)	0.3 (≈ 0.108 µg/mL)	0.39 (≈ 0.14 µg/mL)	0.6 (≈ 0.215 µg/mL)	0.39 (≈ 0.14 µg/mL)	0.6 (≈ 0.215 µg/mL)	0.6 (≈ 0.215 µg/mL)	0.39 (≈ 0.14 µg/mL)	0.6 (≈ 0.215 µg/mL)	0.39 (≈ 0.14 µg/mL)	0.39 (≈ 0.14 µg/mL)	0.39 (≈ 0.14 µg/mL)	0.78 (≈ 0.28 µg/mL)	1.5 (≈ 0.538 µg/mL)	1.5 (≈ 0.538 µg/mL)	0.49 (≈ 0.176 µg/mL)	> 100
CCCn1nnc(NC(=O)COc2ccc(C3CCCCC3)cc2)n1	98.5 (≈ 33.8 µg/mL)	6.25 (≈ 2.15 µg/mL)	12.5 (≈ 4.29 µg/mL)	19 (≈ 6.53 µg/mL)	37 (≈ 12.7 µg/mL)	37 (≈ 12.7 µg/mL)	19 (≈ 6.53 µg/mL)	37 (≈ 12.7 µg/mL)	19 (≈ 6.53 µg/mL)	37 (≈ 12.7 µg/mL)	6.25 (≈ 2.15 µg/mL)	25 (≈ 8.59 µg/mL)	25 (≈ 8.59 µg/mL)	50 (≈ 17.2 µg/mL)	50 (≈ 17.2 µg/mL)	50 (≈ 17.2 µg/mL)	40.1 (≈ 13.8 µg/mL)	> 100
CCCCc1ccc(C(=O)Nc2nccc3ccccc23)nc1	61 (≈ 18.6 µg/mL)	0.78 (≈ 0.238 µg/mL)	1.56 (≈ 0.476 µg/mL)	4.7 (≈ 1.44 µg/mL)	6.25 (≈ 1.91 µg/mL)	6.25 (≈ 1.91 µg/mL)	6.25 (≈ 1.91 µg/mL)	9.4 (≈ 2.87 µg/mL)	2.3 (≈ 0.702 µg/mL)	4.7 (≈ 1.44 µg/mL)	0.78 (≈ 0.238 µg/mL)	1.56 (≈ 0.476 µg/mL)	3.12 (≈ 0.953 µg/mL)	6.25 (≈ 1.91 µg/mL)	3.12 (≈ 0.953 µg/mL)	6.25 (≈ 1.91 µg/mL)	39.1 (≈ 11.9 µg/mL)	73.8
CCC(C)NC(=O)c1ccc(NC(=O)C2(c3ccccc3)CCCC2)cc1 (configuration not stated)	> 100	12.5 (≈ 4.56 µg/mL)	> 50	> 50	> 50	> 50	> 50	> 50	> 50	> 50	> 50	> 50	> 50	> 50	> 50	> 50	> 100	> 100
CCOc1ccc(OCC(=O)Nc2cc(C)cc(C)c2)cc1	65 (≈ 19.5 µg/mL)	3.13 (≈ 0.937 µg/mL)	4.7 (≈ 1.41 µg/mL)	≥ 50	> 50	> 50	50 (≈ 15 µg/mL)	> 50	50 (≈ 15 µg/mL)	> 50	50 (≈ 15 µg/mL)	> 50	> 50	> 50	> 50	> 50	82.3 (≈ 24.6 µg/mL)	> 100
CC(C)=CCC/C(C)=C\CNCCNC1C2CC3CC(C2)CC1C3 (configuration not stated)	5.3 (≈ 1.75 µg/mL)	0.39 (≈ 0.129 µg/mL)	0.78 (≈ 0.258 µg/mL)	0.78 (≈ 0.258 µg/mL)	1.2 (≈ 0.397 µg/mL)	1.2 (≈ 0.397 µg/mL)	0.6 (≈ 0.198 µg/mL)	1.2 (≈ 0.397 µg/mL)	0.39 (≈ 0.129 µg/mL)	0.6 (≈ 0.198 µg/mL)	0.39 (≈ 0.129 µg/mL)	0.78 (≈ 0.258 µg/mL)	> 50	> 50	> 50	> 50	1.24 (≈ 0.41 µg/mL)	7.1
C[C@]1(COc2ccc(N3CCC(Oc4ccc(OC(F)(F)F)cc4)CC3)cc2)Cn2cc([N+](=O)[O-])nc2O1	0.2 (≈ 0.107 µg/mL)	0.1 (≈ 0.0534 µg/mL)	0.15 (≈ 0.0802 µg/mL)	0.07 (≈ 0.0374 µg/mL)	0.15 (≈ 0.0802 µg/mL)	0.15 (≈ 0.0802 µg/mL)	0.2 (≈ 0.107 µg/mL)	0.05 (≈ 0.0267 µg/mL)	< 0.02	0.1 (≈ 0.0534 µg/mL)	0.05 (≈ 0.0267 µg/mL)	0.6 (≈ 0.321 µg/mL)	0.39 (≈ 0.208 µg/mL)	12.5 (≈ 6.68 µg/mL)	> 50	> 50	0.08 (≈ 0.0428 µg/mL)	72.5
COc1ccc(Cn2cnc3c(-c4ccco4)nc(Cl)nc32)cc1	8.43 (≈ 2.87 µg/mL)	0.78 (≈ 0.266 µg/mL)	1.56 (≈ 0.532 µg/mL)	> 50	> 50	19 (≈ 6.47 µg/mL)	> 50	> 50	4.7 (≈ 1.6 µg/mL)	> 50	6.25 (≈ 2.13 µg/mL)	3.13 (≈ 1.07 µg/mL)	50 (≈ 17 µg/mL)	> 50	> 50	> 50	> 100	> 100

— ChEMBL document CHEMBL3832761, “MMV Pathogen Box Bioactivity Data” (2017)
